According to PMC8120183, “Cardamonin inhibits the progression of oesophageal cancer by inhibiting the PI3K/AKT signalling pathway” (Journal of Cancer, 2021):
Peptide text beside a SMILES is read from it. * marks the point of attachment. Cbz = O=C(OCc1ccccc1)*; CH2F = FC*

How the values were obtained:
Type in all cases: cell-based, human
[1] = tested on: oesophageal cancer cell lines EC9706 and TE10; assay: Colony formation assay; conditions: MTT and colony formation assays, co-incubation with CAR
Description: Oesophageal cancer cells were inoculated into 6-well plates at a density of 8×10^2 cells/well and treated with different concentrations of CAR. The cells were continuously cultured for two weeks until colonies visible to the naked eye had formed. Then, the supernatant was discarded, and crystal violet staining solution was added for 10 min. The cells were dried and photographed, and the colony formation rate was calculated.

[2] = tested on: PI3K/AKT signalling pathway in EC9706 cells; assay: Western blot, PI3K/AKT signalling pathway; conditions: co-incubation with CAR
Description: Oesophageal cancer cells were inoculated into a 6-well plate (5×10^5 cells/well). Cells were treated with different concentrations of CAR and then incubated for an additional 48 h. The cells were lysed using radio-immunoprecipitation assay (RIPA) buffer. The protein concentration was determined using a BCA kit. Proteins were separated by 8-12% sodium dodecyl sulfate-polyacrylamide gel electrophoresis (SDS-PAGE) and then transferred to a polyvinylidene fluoride (PVDF) membrane. The membrane was blocked with 5% nonfat milk for 1 h and then incubated with primary antibodies at 4 °C overnight. The membrane was then incubated with secondary antibodies for 1 h at room temperature. Finally, the membrane was imaged using a chemiluminescence imaging analyser. The greyscale value of each target protein band was analysed using the software provided with the analyser.

[3] = tested on: EC9706 and TE10 oesophageal cancer cells; assay: Hoechst 33258 staining, apoptosis; conditions: Hoechst 33258 staining and flow cytometry, co-incubation with CAR
Description: Cells were seeded into 24-well plates (3×10^4 cells/well). The cells were treated with different concentrations of CAR and then incubated for 48 h, followed by fixation with 4% paraformaldehyde for 30 min and one wash with PBS. The cells were stained with Hoechst 33258 (50 ng/ml) for 30 min. Apoptotic cells were observed using a fluorescence microscope (apoptotic cells were characterized by dense chromatin), and five randomly selected fields were used for cell counting.

EC9706 and TE10 cells = assay: Transwell migration assay; conditions: scratch healing, Transwell migration and invasion assays, co-incubation with CAR
Description: A total of 100 μL of Matrigel was placed in the upper chamber of a Transwell system and incubated at 37 °C for 2 h to form a white membrane visible to the naked eye. Cells were resuspended in serum-free medium and adjusted to a concentration of 3×10^4 cells/well. Medium containing 10% FBS was added into the lower chamber, and CAR was added based on a concentration gradient. Next, the cells were incubated for 48 h and then stained with crystal violet for 10 min. Then, an inverted microscope was used to observe the cells; five fields were randomly selected to observe and count the cells. To assess cell migration, all the above steps were repeated, but Matrigel was not added to the upper chamber.

EC9706 cells = assay: Annexin V-FITC/PI flow cytometry, apoptosis; conditions: co-incubation with CAR
Description: After the oesophageal cancer cells were treated with different concentrations of CAR for 48 h, the cells were digested with trypsin, washed twice with PBS, and resuspended in 1× loading buffer. The cells were double-stained with 5 µL of annexin V-FITC and 5 μL of PI and then incubated in the dark for 30 min before flow cytometry analysis.

Compound | effect of PI3K agonist on antiproliferation effect of CAR [1] | effect of PI3K agonist on CAR inhibition of PI3K/AKT [2] | effect of PI3K agonist on apoptosis-promoting effect of CAR [3] | effect of PI3K agonist on anti-migration and anti-invasion effects of CAR (EC9706 and TE10 cells) | effect of caspase inhibitor pretreatment on CAR-induced apoptosis (EC9706 cells)
740Y-P [reference compound] | could partially reverse the antiproliferation effect of CAR | eliminated the inhibitory effect of CAR on PI3K/AKT in oesophageal cancer cells | could partially reverse the apoptosis-promoting effect of CAR on EC9706 and TE10 cells | can partially reverse the anti-migration and anti-invasion effects of CAR on oesophageal cancer cells | 
COC(=O)C[C@H](NC(=O)[C@H](C)NC(=O)[C@@H](NC(=O)OCc1ccccc1)C(C)C)C(=O)CF [Z-VAD-FMK] (Cbz-Val-Ala-Asp(OMe)-CH2F) |  |  |  |  | could reverse the apoptosis induced by CAR
